Experimental data from article PMC9603770, “Broad-Spectrum Inhibitors against Class A, B, and C Type β-Lactamases to Block the Hydrolysis against Antibiotics: Kinetics and Structural Characterization” (Microbiology Spectrum, 2022).

Columns and labels:
[1] = system: β-lactamase-producing clones; test: MIC fold reduction of meropenem in combination with inhibitor (discussion summary); type: cell-based, Escherichia coli
Excerpt: The combination of D2573 with cephalosporins (cefotaxime plus D2573 and cefoxitin plus D2573) or the combination of D2148 with cephalosporins (cefotaxime plus D2148 and cefoxitin plus D2148) or the combination of D63 with cephalosporins (cefotaxime plus D63 and cefoxitin plus D63) had […] MICs than the control. […] The MIC and MBC data are in harmony with in silico data which concluded that three potential inhibitors, D2573, D2148, and D63, are potential candidates against broad-spectrum β-lactamase-producing bacterial strains.
The MICs of various antibiotics in combination with selected inhibitors were determined on DH5α cells and clinical strains (AK-10, AK-12,AK-18, NP-6, AK-67, AK-66) using the microdilution method; Clinical and Laboratory Standards Institute (CLSI) guidelines were used to interpret the results ([37], [38]). In a series of 2-fold dilutions, E. coli cells were given escalating doses of antibiotics from 0 to 512 μg/mL.

Amp-C [2] = biological target: T1, Amp-C (Escherichia coli, UniProt P00811); test: Fluorescence quenching; type: binding; conditions: 298 K
T1 construct: made in house; host or cells: E. coli (DH5 and BL21(DE3) named; pET-28a)
T1 sequence (P00811 20-377): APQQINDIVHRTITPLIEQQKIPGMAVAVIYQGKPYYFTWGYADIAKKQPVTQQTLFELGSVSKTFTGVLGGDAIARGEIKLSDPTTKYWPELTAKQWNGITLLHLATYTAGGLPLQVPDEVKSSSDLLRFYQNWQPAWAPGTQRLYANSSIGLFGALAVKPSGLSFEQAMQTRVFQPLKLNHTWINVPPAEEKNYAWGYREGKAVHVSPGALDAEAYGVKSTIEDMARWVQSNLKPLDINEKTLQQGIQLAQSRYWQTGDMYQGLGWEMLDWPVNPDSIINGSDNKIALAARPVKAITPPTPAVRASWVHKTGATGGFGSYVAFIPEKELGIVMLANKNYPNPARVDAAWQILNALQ
Procedure: (§1) Fluorescence quenching can be either dynamic or static in nature. The fluorescence intensity was calculated to understand the mechanism of protein quenching from all three classes of β-lactamase with D63, D2148, and D2573. The KSV (Stern–Volmer quenching constant; [Q] is the concentration of inhibitor) of all protein-inhibitor complexes was calculated from the slope of plot Fo/F (fluorescence intensities in the absence and presence of quencher) versus [Q], whereas number of binding sites (n) and Kb values for all combinations of proteins and inhibitors were determined by the slope and intercept of plot log (Fo/F – 1) versus log[Q] (Table 9). In this study, the KSV values were obtained, on the order of 10^2 to 10^5, for all enzyme-inhibitor complexes.
(§2) A Shimadzu RF-5301PC spectrofluorometer (Shimadzu Corporation, Kyoto, Japan) was used to measure the fluorescence spectra. Quenching was observed by measuring intrinsic fluorescence at 295 nm between 300 and 400 nm. The emission and excitation slits were both adjusted to 5 nm. Then, 2 μM each D2573, D2148, and D63 were added to a 3-mL sample containing 2 μM protein ([…]). All the fluorescence intensities were corrected for the inner filter effect. The determination of the number of binding sites (n) and binding constant (Kb) at 298 K temperature for all the protein-inhibitor combinations from the Stern-Volmer equation and modified Stern-Volmer equation (equations 4 and 5). (4) (F0)/F = 1 + Ksv[Q] (5) Log (F0 − F)/F= logKb + n log[Q]
(§3) Fo and F are the fluorescence intensities in the absence and presence of quencher (D63, D2148, D2573).

KPC-2 [3] = biological target: T2, KPC-2 (Klebsiella pneumoniae, UniProt Q9F663); test: Fluorescence quenching; type: binding; conditions: 298 K
T2 construct: made in house; host or cells: E. coli (DH5 and BL21(DE3) named; pET-28a)
T2 sequence (Q9F663 25-293, looked up, species assumed): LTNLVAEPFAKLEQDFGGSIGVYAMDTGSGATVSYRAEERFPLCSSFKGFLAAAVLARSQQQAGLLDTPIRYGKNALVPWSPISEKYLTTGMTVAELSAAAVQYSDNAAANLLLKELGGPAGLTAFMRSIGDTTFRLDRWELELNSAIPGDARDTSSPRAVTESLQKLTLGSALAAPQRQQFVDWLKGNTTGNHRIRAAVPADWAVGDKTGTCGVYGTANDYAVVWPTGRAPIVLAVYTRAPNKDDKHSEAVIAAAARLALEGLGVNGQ
Procedure: as §1, with “9).” for “9). In this study, the KSV values were obtained, on the order of 10^2 to 10^5, for all enzyme-inhibitor complexes.”
as §2, §3

SHV-1 = biological target: T3, SHV-1 (Klebsiella pneumoniae, UniProt P0AD64); test: Fluorescence quenching; type: binding; conditions: 298 K
T3 construct: made in house; host or cells: E. coli (DH5 and BL21(DE3) named; pET-28a)
T3 sequence (P0AD64 22-286): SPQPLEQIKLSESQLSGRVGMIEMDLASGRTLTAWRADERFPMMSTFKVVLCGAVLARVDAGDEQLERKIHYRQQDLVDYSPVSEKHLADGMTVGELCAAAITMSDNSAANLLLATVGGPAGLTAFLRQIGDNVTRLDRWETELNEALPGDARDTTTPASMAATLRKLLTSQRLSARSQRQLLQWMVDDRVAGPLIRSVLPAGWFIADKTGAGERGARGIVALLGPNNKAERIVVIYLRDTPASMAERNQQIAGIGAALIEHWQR
Procedure: as §1, with “9).” for “9). In this study, the KSV values were obtained, on the order of 10^2 to 10^5, for all enzyme-inhibitor complexes.”
as §2, §3

CTX-M-15 [4] = biological target: T4, CTX-M-15 (Escherichia coli, UniProt Q9EXV5); test: Fluorescence quenching; type: binding; conditions: 298 K
T4 construct: made in house; host or cells: E. coli (DH5 and BL21(DE3) named)
T4 sequence (Q9EXV5 29-291, species assumed): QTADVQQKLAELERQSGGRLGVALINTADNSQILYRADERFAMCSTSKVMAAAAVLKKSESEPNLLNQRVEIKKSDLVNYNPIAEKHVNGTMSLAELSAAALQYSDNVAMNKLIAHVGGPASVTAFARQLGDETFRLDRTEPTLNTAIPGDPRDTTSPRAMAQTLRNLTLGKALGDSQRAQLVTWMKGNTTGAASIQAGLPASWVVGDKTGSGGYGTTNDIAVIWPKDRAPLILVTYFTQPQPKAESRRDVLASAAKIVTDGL
Procedure: as §1, with “9).” for “9). In this study, the KSV values were obtained, on the order of 10^2 to 10^5, for all enzyme-inhibitor complexes.”
as §2, §3

TEM-1 [5] = biological target: T5, TEM-1 (Escherichia coli, UniProt P62593); test: Fluorescence quenching; type: binding; conditions: 298 K
T5 construct: made in house; host or cells: E. coli (DH5 and BL21(DE3) named; pET-28a)
T5 sequence (P62593 24-286 limits assumed): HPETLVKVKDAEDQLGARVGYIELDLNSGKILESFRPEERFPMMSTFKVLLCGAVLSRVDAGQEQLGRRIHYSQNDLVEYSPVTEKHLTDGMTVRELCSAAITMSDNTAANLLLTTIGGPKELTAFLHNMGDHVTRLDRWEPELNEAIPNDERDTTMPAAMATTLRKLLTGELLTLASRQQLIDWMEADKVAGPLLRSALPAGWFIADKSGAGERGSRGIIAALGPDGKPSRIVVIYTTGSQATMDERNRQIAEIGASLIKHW
Procedure: as §1, with “9).” for “9). In this study, the KSV values were obtained, on the order of 10^2 to 10^5, for all enzyme-inhibitor complexes.”
as §2, §3

NDM-1 = biological target: T6, NDM-1 (Klebsiella pneumoniae, UniProt C7C422); test: Fluorescence quenching; type: binding; conditions: 298 K
T6 construct: made in house; host or cells: E. coli (DH5 and BL21(DE3) named)
T6 sequence (C7C422 29-270, looked up, species assumed): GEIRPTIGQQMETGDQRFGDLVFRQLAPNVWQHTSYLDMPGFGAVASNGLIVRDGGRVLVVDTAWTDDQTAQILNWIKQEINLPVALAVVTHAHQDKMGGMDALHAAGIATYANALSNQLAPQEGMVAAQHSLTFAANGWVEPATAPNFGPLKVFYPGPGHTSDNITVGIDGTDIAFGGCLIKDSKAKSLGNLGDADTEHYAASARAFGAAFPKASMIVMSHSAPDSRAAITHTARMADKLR
Procedure: as §1, with “9).” for “9). In this study, the KSV values were obtained, on the order of 10^2 to 10^5, for all enzyme-inhibitor complexes.”
as §2, §3

KPC-2 [6] = biological target: T2, KPC-2; test: Steady-state kinetics of antibiotic hydrolysis with inhibitor; type: biochemical; conditions: inhibitor concentration as per IC50
Procedure: (§4) The enzyme kinetics parameters (Km, and kcat) for all six proteins/enzymes in combination with different antibiotics (cefotaxime, imipenem, and meropenem), were calculated. The concentration of inhibitors, D63, D2148, and D2573, was as per the IC50 value (Fig. 5); the kinetic parameters are listed in Table 8.
(§5) The steady-state kinetics of all six proteins were determined using the antibiotics:imipenem (Δε295 = −11,500 M^−1 cm^−1), meropenem (Δε297 = −10,940 M^−1 cm^−1), and cefotaxime (Δε264 = −27,250 M^−1 cm^−1). In this study, the D63, D2148, and D2573 inhibitors were tested. Hydrolysis of β-lactam antibiotics was detected by monitoring the variation in absorbance due to cleavage of the β-lactam ring in 50 mM, pH 7.0, phosphate buffer ([40], [41]). For hydrolysis of substrate (cefotaxime, imipenem, and meropenem) kinetics parameters, Km and kcat were calculated by using Michaelis Menten equations (equations 2 and 3). (2) V =Vmax [S]/Km + [S] (3) kcat = Vmax/E where E and S are the enzyme and substrate concentration, Km is the Michaelis-Mentent constant, kcat is the turnover number, and V and Vmax are the initial and maximum velocity of the hydrolysis, respectively.

CTX-M-15 [7] = biological target: T4, CTX-M-15; test: as above; type: biochemical; conditions: inhibitor concentration as per IC50
Procedure: as §4, §5

Amp-C [8] = biological target: T1, Amp-C; test: as above; type: biochemical; conditions: inhibitor concentration as per IC50
Procedure: as §4, §5

TEM-1 [9] = biological target: T5, TEM-1; test: as above; type: biochemical; conditions: inhibitor concentration as per IC50
Procedure: as §4, §5

Structure (SMILES)	n (number of binding sites) (Amp-C [2])	n (number of binding sites) (KPC-2 [3])	n (number of binding sites) (SHV-1)	n (number of binding sites) (CTX-M-15 [4])	n (number of binding sites) (TEM-1 [5])	n (number of binding sites) (NDM-1)	Km or Ki (KPC-2 [6]; cefotaxime) [μΜ]	kcat (KPC-2 [6]; cefotaxime) [S^−1]	Km or Ki (KPC-2 [6]; imipenem) [μΜ]	kcat (KPC-2 [6]; imipenem) [S^−1]	Km or Ki (KPC-2 [6]; meropenem)	kcat (KPC-2 [6]; meropenem) [S^−1]	Km or Ki (CTX-M-15 [7]; cefotaxime) [μΜ]	kcat (CTX-M-15 [7]; cefotaxime) [S^−1]	kcat (CTX-M-15 [7]; imipenem)	Km or Ki (CTX-M-15 [7]; meropenem)	kcat (CTX-M-15 [7]; meropenem)	Km or Ki (Amp-C [8]; cefotaxime)	kcat (Amp-C [8]; cefotaxime) [S^−1]	Km or Ki (Amp-C [8]; imipenem)	other results
O=C(CN1C(=O)c2ccccc2S1(=O)=O)c1ccc(O)c(O)c1 [D63, 2-[2-(3,4-dihydroxyphenyl)-2-oxoethyl]-1H-1,2-benzisothiazole-1,1,3(2H)-trione]	0.8493	0.33	0.4791	1.9313	0.4298	1.6673	713	0.384	489.1	0.39	511.7 μΜ	0.45	742.7	0.7320	5.572 S^−1	228.4 μΜ	1.723 S^−1	1,522 μΜ	1.537	499.22 μΜ	Reduction of MIC of meropenem in combination with inhibitor ([1]; class A β-lactamases): 2 fold; Reduction of MIC of meropenem in combination with inhibitor ([1]; class B and C β-lactamases): 4 fold; Km or Ki (CTX-M-15 [7]; imipenem): 480.5 μΜ; kcat (Amp-C [8]; imipenem): 1.158 S^−1; Km or Ki (Amp-C [8]; meropenem): 553.8 μΜ; kcat (Amp-C [8]; meropenem): 1.093 S^−1; Km or Ki (TEM-1 [9]; cefotaxime): 1,353 μΜ; kcat (TEM-1 [9]; cefotaxime): 1.051 S^−1; Km or Ki (TEM-1 [9]; imipenem): 673.1 μΜ; kcat (TEM-1 [9]; imipenem): 1.194 S^−1; Km or Ki (TEM-1 [9]; meropenem): 253.5 μΜ; kcat (TEM-1 [9]; meropenem): 0.6169 S^−1
O=C(c1ccccc1)C1CCN(C(=O)CN2C(=O)c3ccccc3C2=O)CC1 [D2148, 2-[2-(4-benzoylpiperidino) -2-oxoethyl]-1H-isoindole-1,3(2H)-dione]	1.2792	1.148	0.2952	1.163	0.2489	2.457	358.7	3.293	301.8	3.44	491 μΜ	2.47	670.6	838.6	2,720 S^−1	9,333 μΜ	17,974 S^−1	796.6 μΜ	3.401	1,136 μΜ	Reduction of MIC of meropenem in combination with inhibitor ([1]; class A β-lactamases): 2 fold; Reduction of MIC of meropenem in combination with inhibitor ([1]; class B and C β-lactamases): 4 fold; Km or Ki (CTX-M-15 [7]; imipenem): 675.9 μΜ; kcat (Amp-C [8]; imipenem): 2.631 S^−1; Km or Ki (Amp-C [8]; meropenem): 794 μΜ; kcat (Amp-C [8]; meropenem): 2.637 S^−1; Km or Ki (TEM-1 [9]; cefotaxime): 757.7 μΜ; kcat (TEM-1 [9]; cefotaxime): 6.332 S^−1; Km or Ki (TEM-1 [9]; imipenem): 689.7 μΜ; kcat (TEM-1 [9]; imipenem): 0.9853 S^−1; Km or Ki (TEM-1 [9]; meropenem): 7,537 μΜ; kcat (TEM-1 [9]; meropenem): 43.13 S^−1
O=C(O)c1ccccc1C(=O)N1CCN(c2nc(-c3ccccc3)ns2)CC1 [D2573, 2-{[4-(3-phenyl-1,2,4-thiadiazol-5-yl)piperazino]carbonyl}benzoic acid]	0.7042	1.1315	0.7621	0.9674	0.750	0.1842	549.1	0.454	878.8	0.419	2,786 μΜ	1.02	330.1	0.9055	1.454 S^−1	469.8 μΜ	0.9091 S^−1	1,522 μΜ	1.5	499 μΜ	Reduction of MIC of meropenem in combination with inhibitor ([1]; all selected β-lactamase enzymes): 2 fold; kcat (Amp-C [8]; imipenem): 1.158 S^−1; Km or Ki (Amp-C [8]; meropenem): 553 μΜ; kcat (Amp-C [8]; meropenem): 1.09 S^−1; Km or Ki (TEM-1 [9]; cefotaxime): 905.2 μΜ; kcat (TEM-1 [9]; cefotaxime): 1.056 S^−1; Km or Ki (TEM-1 [9]; imipenem): 2,665 μΜ; kcat (TEM-1 [9]; imipenem): 1.454 S^−1; Km or Ki (TEM-1 [9]; meropenem): 2,129 μΜ; kcat (TEM-1 [9]; meropenem): 1.563 S^−1
